Test systems include HOP-92 NSCLC; U251 CNS; COLO 205 colon; SNB-75 CNS; SN12C renal; M14 melanoma; SK-OV-3 ovarian; PC-3 prostate; MCF7 breast; MDA-MB-231 breast.
Common to all, as to assay: NCI anticancer screen, dose series, 48 h

In PubChem BioAssay (NCI) one finds TGI and GI50 data, which are given here for 12 compounds.

Several values for one entry are separate records, joined by “and”; a condition that tells them apart may be missing. Equal values may be shown once.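 Cells were grown in 96-well plates and exposed to each compound for 48 hours at five concentrations; endpoints were interpolated linearly between bracketing concentrations, or set to the highest concentration if not reached. Here, GI50 denotes the concentration required for 50% inhibition of growth. TGI marks complete inhibition of growth.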

For `CC1(C)CCC(Sc2ccccc2)O1` (stereo not drawn), the TGI with HOP-92 NSCLC, in the experiment with U251 CNS, in the experiment with COLO 205 colon, in the experiment with SNB-75 CNS, with SN12C renal and in the experiment with M14 melanoma was more than 100 µM throughout. In the experiment with SK-OV-3 ovarian, this compound returned a TGI of more than 100 µM.

As to `COC1=C(N)C(=O)c2nc(-c3nc(C(=O)O)c(C)c(-c4ccc(OC)c(OC)c4O)c3N)ccc2C1=O`, the GI50 in the experiment with HOP-92 NSCLC is 0.00666 µM and < 0.0284 µM; with PC-3 prostate, 0.0298 µM; in the experiment on SN12C renal, 0.00175 µM and 0.0149 µM. Moreover, the TGI in the experiment with HOP-92 NSCLC is 0.0442 µM and 0.428 µM; in the experiment on PC-3 prostate, 0.203 µM and 0.0292 µM and 0.0228 µM; in the experiment on SN12C renal it was 0.00884 µM and 0.0161 µM; in the experiment with SK-OV-3 ovarian, 0.0272 µM and 0.0174 µM.

Take `Cc1ccc(C(=O)CC2(O)C(=O)Nc3c(C)cc(Cl)cc32)cc1` (stereo not drawn): the TGI with HOP-92 NSCLC, in the experiment on U251 CNS, with COLO 205 colon, with SNB-75 CNS, in the experiment with SN12C renal and in the experiment with M14 melanoma was more than 100 µM throughout. In the experiment on SK-OV-3 ovarian, this compound showed a TGI of more than 100 µM.

In the case of `COc1cc[c]([Sn]([c]2ccc(OC)cc2)([c]2ccc(OC)cc2)[c]2ccc(OC)cc2)cc1`, the GI50 is 4.2 µM in the experiment on HOP-92 NSCLC; 20.8 µM in the experiment on U251 CNS; 18.3 µM in the experiment with COLO 205 colon; 24 µM with SNB-75 CNS; more than 100 µM with SN12C renal; 16.7 µM with M14 melanoma. Moreover, the GI50 in the experiment on SK-OV-3 ovarian is 96.5 µM. The TGI in the experiment with HOP-92 NSCLC is 22.8 µM; in the experiment on U251 CNS, 72.2 µM; in the experiment on COLO 205 colon, 41.8 µM; with SNB-75 CNS, more than 100 µM; in the experiment on SN12C renal it was more than 100 µM; with M14 melanoma, 36 µM. This compound displayed a TGI with SK-OV-3 ovarian of more than 100 µM.

Take `CC(C)(CN1C(=O)C(Cl)=C(Cl)C1=O)CN1C(=O)C(Cl)=C(Cl)C1=O`: the TGI in the experiment with HOP-92 NSCLC turned out to be 18.1 µM; with U251 CNS it was 38.7 µM; with COLO 205 colon, 8.66 µM; in the experiment on SNB-75 CNS, 50.7 µM; in the experiment on SN12C renal, 29.4 µM; in the experiment with M14 melanoma it was 38.2 µM. The same compound showed a TGI with SK-OV-3 ovarian of more than 58.9 µM.

On to `Cc1nc(N)nc(N)c1CCCCc1ccc(N)cc1`, for which the TGI worked out at 18 µM with HOP-92 NSCLC; 17.6 µM in the experiment with U251 CNS; 28 µM in the experiment on COLO 205 colon; 29.3 µM in the experiment on SNB-75 CNS; 16.9 µM with SN12C renal; 18.4 µM in the experiment on M14 melanoma. The TGI with SK-OV-3 ovarian was 16.6 µM.

Take `COc1ccc2c(c1)OC(N)=C(C#N)C2c1cc(OC)c(OC)c(OC)c1` (stereo not drawn): the GI50 in the experiment on HOP-92 NSCLC is 0.169 µM; in the experiment with PC-3 prostate, 0.0498 µM; with U251 CNS, 0.0329 µM; with COLO 205 colon, 0.0244 µM; in the experiment with SNB-75 CNS, 0.0394 µM; with MCF7 breast, 0.0361 µM. In addition, the results for the GI50 with SN12C renal, in the experiment with M14 melanoma and in the experiment with SK-OV-3 ovarian were 0.0494 µM, 0.0336 µM and 0.0304 µM, respectively. In addition, the TGI with HOP-92 NSCLC is more than 100 µM; in the experiment with PC-3 prostate, more than 100 µM; with U251 CNS, 1.48 µM; in the experiment on COLO 205 colon it was 0.061 µM; with SNB-75 CNS it was 45.9 µM; in the experiment with MCF7 breast, more than 100 µM. For the same compound, the TGI is more than 100 µM with SN12C renal, more than 100 µM in the experiment with M14 melanoma and 1.11 µM in the experiment with SK-OV-3 ovarian.

As to `C=C1C(=O)O[C@H]2[C@H]1CC/C(COC(=O)c1cc(OC)c(OC)c(OC)c1)=C\CC[C@@]1(C)O[C@@H]21`, the GI50 was 0.523 µM with HOP-92 NSCLC; 1.8 µM in the experiment on PC-3 prostate; 1.6 µM in the experiment on U251 CNS; 1.18 µM in the experiment with COLO 205 colon; 7.92 µM with SNB-75 CNS; 1.24 µM in the experiment with SN12C renal. The GI50 with MDA-MB-231 breast was 1.54 µM; in the experiment on M14 melanoma, 1.27 µM; in the experiment with SK-OV-3 ovarian it was 5.22 µM. In addition, the TGI in the experiment on HOP-92 NSCLC amounted to 2.1 µM; in the experiment on PC-3 prostate, 4.49 µM; with U251 CNS it was 3.47 µM; in the experiment on COLO 205 colon, 3.09 µM; in the experiment with SNB-75 CNS it was 21.6 µM; in the experiment with SN12C renal it was 3.12 µM. Further, the TGI with MDA-MB-231 breast is 4.16 µM; in the experiment on M14 melanoma it was 3.05 µM; with SK-OV-3 ovarian it was 16.8 µM.

Take `COC(=O)C(=O)Cc1nc2ccccc2s1`: the TGI with HOP-92 NSCLC, in the experiment on U251 CNS, in the experiment with COLO 205 colon, in the experiment on SNB-75 CNS, in the experiment with SN12C renal and with M14 melanoma was more than 100 µM throughout. In addition, the TGI in the experiment on SK-OV-3 ovarian was more than 100 µM.

As for `COc1cc(-c2cc(/C=C/C(=O)c3ccc(F)c(F)c3)[nH]n2)cc(OC)c1OC`, the GI50 in the experiment on PC-3 prostate was 1.66 µM; in the experiment on U251 CNS, 2.9 µM; with COLO 205 colon it was 1.69 µM; with MCF7 breast it was 3.2 µM; with SN12C renal, 3.37 µM; in the experiment on MDA-MB-231 breast, 1.64 µM. In addition, the results for the GI50 in the experiment with M14 melanoma and in the experiment on SK-OV-3 ovarian were 2.7 µM and 3.53 µM, respectively. Moreover, the TGI with PC-3 prostate is 5.72 µM; with U251 CNS, 15.7 µM; in the experiment on COLO 205 colon, 3.19 µM; in the experiment with MCF7 breast, 12.3 µM; in the experiment on SN12C renal, 25.5 µM; with MDA-MB-231 breast, 4.58 µM. Besides, the figures for the TGI in the experiment with M14 melanoma and in the experiment on SK-OV-3 ovarian were 11.9 µM and 58.6 µM, respectively.

On to `CCCCN(CCCC)C(=O)[C@H](CC)[C@@H]1CC[C@@H](C)[C@@H]([C@H](C)[C@@H](O)[C@@H](C)C(=O)[C@H](CC)C2O[C@]3(C=C[C@@H](O)[C@]4(CC[C@@](C)([C@H]5CC[C@](O)(CC)[C@H](C)O5)O4)O3)[C@H](C)C[C@@H]2C)O1` (stereo partly drawn), for which the GI50 is 1.2 µM in the experiment on HOP-92 NSCLC; 2.05 µM with PC-3 prostate; 2.78 µM with U251 CNS; 2.45 µM in the experiment with COLO 205 colon; 1.78 µM in the experiment with SNB-75 CNS; 2.4 µM with MCF7 breast. Also, the GI50 in the experiment on SN12C renal was 2.13 µM; in the experiment with MDA-MB-231 breast, 1.57 µM; in the experiment on SK-OV-3 ovarian, 3.38 µM. In addition, the TGI with HOP-92 NSCLC is 4.05 µM; in the experiment with PC-3 prostate, 16.8 µM; with U251 CNS, 10.3 µM; with COLO 205 colon, 5.99 µM; in the experiment with SNB-75 CNS, 26.9 µM; in the experiment with MCF7 breast, 7.77 µM. The TGI with SN12C renal was 7.34 µM; with MDA-MB-231 breast, 3.19 µM; in the experiment on SK-OV-3 ovarian, more than 100 µM.

Consider `COC(=O)CCSC(=O)Nc1ccc(N=Nc2ccccc2)cc1`, for which the TGI in the experiment with HOP-92 NSCLC is more than 100 µM; in the experiment on U251 CNS it was more than 100 µM; with COLO 205 colon, 47.7 µM; in the experiment on SNB-75 CNS, more than 100 µM; with SN12C renal it was more than 100 µM; with M14 melanoma it was more than 100 µM. The compound also had a TGI with SK-OV-3 ovarian of more than 100 µM.
